From ChEMBL document CHEMBL1137662, “Effect of oral treatment with hexadecyloxypropyl-[(S)-9-(3-hydroxy-2- phosphonylmethoxypropyl)adenine] [(S)-HPMPA] or octadecyloxyethyl-(S)-HPMPA on cowpox or vaccinia virus infections in mice” (Antimicrob Agents Chemother, 2007)

Legend:
[1] = tested on: Cowpox virus; assay: Antiviral activity against Cowpox virus Brighton infected BALB/c mouse assessed as mean death day at 3 mg/kg, po treated for 5 days after 24 hrs of viral inoculation; type: functional, Cowpox virus (Brighton Red)
[2] = Selectivity index, ratio of CC50 for HFF cells to EC50 for Cowpox virus Brighton; type: toxicity, cell-based; conditions: human, read-out: Ratio CC50/EC50
[3] = tested on: Mus musculus; assay: Plasma concentration in Swiss Webster mouse at 10 mg/kg, ip after 24 hrs by liquid scintillation counting; type: ADME, organism-based; parameters: dose 10 mg/kg, route intraperitoneal; conditions: in vivo
[4] = Cmax in Swiss Webster mouse at 10 mg/kg, ip; type: ADME, organism-based; parameters: dose 10 mg/kg, route intraperitoneal; conditions: in vivo
[5] = tested on: Vaccinia virus; assay: Antiviral activity against Vaccinia virus WR infected BALB/c mouse assessed as mortality at 10 mg/kg, po treated for 5 days after 48 hrs of viral inoculation; type: functional, Orthopoxvirus vaccinia
[6] = tested on: Kidney; assay: Drug level in Swiss Webster mouse kidney at 10 mg/kg, ip after 1 hr; type: ADME, organism-based; parameters: dose 10 mg/kg, route intraperitoneal; conditions: in vivo
[7] = tested on: Liver; assay: Drug level in Swiss Webster mouse liver at 10 mg/kg, po after 3 hrs; type: ADME, organism-based; parameters: dose 10 mg/kg, route oral; conditions: in vivo
[8] = Oral bioavailability in Swiss Webster mouse at 10 mg/kg; type: ADME, organism-based; conditions: in vivo
[9] = tested on: Mus musculus; assay: AUC (0 to 24hrs) in Swiss Webster mouse plasma at 10 mg/kg, ip; type: ADME, organism-based; parameters: time < 24 hr, dose 10 mg/kg, route intraperitoneal; conditions: in vivo
[10] = tested on: Cowpox virus; assay: Antiviral activity against Cowpox virus Brighton infected BALB/c mouse assessed as mortality at 30 mg/kg, po treated for 5 days after 24 hrs of viral inoculation; type: functional, Cowpox virus (Brighton Red)
[11] = Half life in Swiss Webster mouse at 10 mg/kg, ip; type: ADME, organism-based; parameters: dose 10 mg/kg, route intraperitoneal; conditions: in vivo
[12] = tested on: Mus musculus; assay: Plasma concentration in Swiss Webster mouse at 10 mg/kg, po after 24 hrs by liquid scintillation counting; type: ADME, organism-based; parameters: dose 10 mg/kg, route oral; conditions: in vivo
[13] = tested on: Vaccinia virus; assay: Antiviral activity against Vaccinia virus WR infected BALB/c mouse assessed as mortality at 30 mg/kg, po treated for 5 days after 24 hrs of viral inoculation; type: functional, Orthopoxvirus vaccinia
[14] = tested on: Cowpox virus; assay: Antiviral activity against Cowpox virus Brighton infected BALB/c mouse assessed as mortality at 3 mg/kg, po treated for 5 days after 48 hrs of viral inoculation; type: functional, Cowpox virus (Brighton Red)
[15] = Tmax in Swiss Webster mouse at 10 mg/kg, po; type: ADME, organism-based; parameters: dose 10 mg/kg, route oral; conditions: in vivo
[16] = tested on: Vaccinia virus; assay: Antiviral activity against Vaccinia virus WR infected BALB/c mouse assessed as mortality at 30 mg/kg, po treated for 5 days after 72 hrs of viral inoculation; type: functional, Orthopoxvirus vaccinia
[17] = tested on: Cowpox virus; assay: Antiviral activity against Cowpox virus Brighton infected BALB/c mouse assessed as mortality at 30 mg/kg, po treated for 5 days after 72 hrs of viral inoculation; type: functional, Cowpox virus (Brighton Red)
[18] = tested on: Liver; assay: Drug level in Swiss Webster mouse liver at 10 mg/kg, ip after 1 hr; type: ADME, organism-based; parameters: dose 10 mg/kg, route intraperitoneal; conditions: in vivo
[19] = Cmax in Swiss Webster mouse at 10 mg/kg, po; type: ADME, organism-based; parameters: dose 10 mg/kg, route oral; conditions: in vivo
[20] = tested on: Mus musculus; assay: AUC (0 to 24hrs) in Swiss Webster mouse plasma at 10 mg/kg, po; type: ADME, organism-based; parameters: time < 24 hr, dose 10 mg/kg, route oral; conditions: in vivo
[21] = tested on: Lung; assay: Drug level in Swiss Webster mouse lung at 10 mg/kg, po after 3 hrs; type: ADME, organism-based; parameters: dose 10 mg/kg, route oral; conditions: in vivo
[22] = tested on: Cowpox virus; assay: Antiviral activity against Cowpox virus Brighton infected BALB/c mouse assessed as log reduction of viral titer per gram of liver at 30 mg/kg, po treated for 5 days after 24 hrs of viral inoculation; type: functional, Cowpox virus (Brighton Red)
[23] = Tmax in Swiss Webster mouse at 10 mg/kg, ip; type: ADME, organism-based; parameters: dose 10 mg/kg, route intraperitoneal; conditions: in vivo
[24] = tested on: Kidney; assay: Drug level in Swiss Webster mouse kidney at 10 mg/kg, po after 3 hrs; type: ADME, organism-based; parameters: dose 10 mg/kg, route oral; conditions: in vivo
[25] = tested on: Mus musculus; assay: Toxicity in BALB/c mouse at 30 mg/kg, po; type: organism-based; parameters: dose 30 mg/kg, route oral; conditions: in vivo
[26] = tested on: Cowpox virus; assay: Antiviral activity against Cowpox virus Brighton infected BALB/c mouse assessed as mean death day at 30 mg/kg, po treated for 5 days after 24 hrs of viral inoculation; type: functional, Cowpox virus (Brighton Red)
[27] = tested on: Lung; assay: Drug level in Swiss Webster mouse lung at 10 mg/kg, ip after 1 hr; type: ADME, organism-based; parameters: dose 10 mg/kg, route intraperitoneal; conditions: in vivo
[28] = Half life in Swiss Webster mouse at 10 mg/kg, po; type: ADME, organism-based; parameters: dose 10 mg/kg, route oral; conditions: in vivo
[29] = tested on: Cowpox virus; assay: Antiviral activity against Cowpox virus Brighton infected BALB/c mouse assessed as mean death day at 10 mg/kg, po treated for 5 days after 24 hrs of viral inoculation; type: functional, Cowpox virus (Brighton Red)

Question: With `CCCCCCCCCCCCCCCCOCCCOP(=O)(O)CO[C@H](CO)Cn1cnc2c(N)ncnc21` as the compound, how does the Activity [1] read?
Answer: Its Activity is 11.4 days.

Question: What about the selectivity ratio [2] of the same compound?
Answer: Its selectivity ratio is 485.

Question: What about the concentration [3] of the same compound?
Answer: Its concentration is 80 nM.

Question: What about the Cmax [4] of the same compound?
Answer: Its Cmax is 2200 nM.

Question: And the Activity [5]?
Answer: The Activity was 13%.

Question: And the Drug uptake [6]?
Answer: Its Drug uptake is 23 nmol/g.

Question: What about the Drug uptake [7] of the same compound?
Answer: Its Drug uptake is 21 nmol/g.

Question: What about the bioavailability [8] of the same compound?
Answer: The bioavailability was 74%.

Question: What about the AUC [9] of the same compound?
Answer: The AUC was 16.4 nmol·h/g.

Question: And the Activity [10]?
Answer: Its Activity is 13%.

Question: And the half-life [11]?
Answer: Its half-life is 2.5 h.

Question: What about the concentration [12] of the same compound?
Answer: The concentration was 30 nM.

Question: What about the Activity [13] of the same compound?
Answer: The Activity was 13%.

Question: And the Activity [14]?
Answer: Its Activity is 87%.

Question: And the Tmax [15]?
Answer: Its Tmax is 1 h.

Question: What about the Activity [16] of the same compound?
Answer: The Activity was 7%.

Question: What about the Activity [17] of the same compound?
Answer: Its Activity is 13%.

Question: And the Drug uptake [18]?
Answer: Its Drug uptake is 130 nmol/g.

Question: What about the Cmax [19] of the same compound?
Answer: The Cmax was 1100 nM.

Question: What about the AUC [20] of the same compound?
Answer: Its AUC is 12.1 nmol·h/g.

Question: And the Drug uptake [21]?
Answer: Its Drug uptake is 1.9 nmol/g.

Question: And the log10PFU [22]?
Answer: Its log10PFU is 2.5 g.

Question: What about the Tmax [23] of the same compound?
Answer: Its Tmax is 3 h.

Question: What about the Drug uptake [24] of the same compound?
Answer: The Drug uptake was 5.1 nmol/g.

Question: What about the Activity [25] of the same compound?
Answer: The Activity was “Non-toxic”.

Question: What about the Activity [26] of the same compound?
Answer: Its Activity is 15 days.

Question: And the Drug uptake [27]?
Answer: Its Drug uptake is 2.8 nmol/g.

Question: What about the half-life [28] of the same compound?
Answer: The half-life was 11.5 h.

Question: What about the Activity [29] of the same compound?
Answer: Its Activity is 13.8 days.

Question: Which Activity [1] does the source give for `CCCCCCCCCCCCCCCCCCOCCOP(=O)(O)CO[C@H](CO)Cn1cnc2c(N)ncnc21` here?
Answer: Its Activity is 13.7 days.

Question: What about the selectivity ratio [2] of the same compound?
Answer: Its selectivity ratio is 75.

Question: What about the Activity [5] of the same compound?
Answer: The Activity was 20%.

Question: And the Activity [10]?
Answer: Its Activity is 7%.

Question: And the Activity [13]?
Answer: The Activity was 27%.

Question: And the Activity [14]?
Answer: The Activity was 80%.

Question: What about the Activity [16] of the same compound?
Answer: The Activity was 73%.

Question: And the Activity [17]?
Answer: Its Activity is 33%.

Question: What about the log10PFU [22] of the same compound?
Answer: Its log10PFU is 2.5 g.

Question: What about the Activity [25] of the same compound?
Answer: The Activity was “Non-toxic”.

Question: And the Activity [26]?
Answer: Its Activity is 13 days.

Question: And the Activity [29]?
Answer: Its Activity is 14 days.
